Source: publication PMC7827085 (Pharmaceutics, 2021)
Changes are numbered by the printed parent chain.

Experiments:
ABCG2/BCRP = target: T1, ABCG2/BCRP (Homo sapiens, UniProt Q9UNQ0); test: ABCG2-ATPase activity in Sf9 membrane vesicles; format: biochemical; design: expressed in transfected cells; host or cells: PLB-985; conditions: Sf9/ABCG2 membranes; ivermectin, ritonavir, lopinavir at low micromolar, remdesivir at higher concentrations
T1 sequence (Q9UNQ0 1-655): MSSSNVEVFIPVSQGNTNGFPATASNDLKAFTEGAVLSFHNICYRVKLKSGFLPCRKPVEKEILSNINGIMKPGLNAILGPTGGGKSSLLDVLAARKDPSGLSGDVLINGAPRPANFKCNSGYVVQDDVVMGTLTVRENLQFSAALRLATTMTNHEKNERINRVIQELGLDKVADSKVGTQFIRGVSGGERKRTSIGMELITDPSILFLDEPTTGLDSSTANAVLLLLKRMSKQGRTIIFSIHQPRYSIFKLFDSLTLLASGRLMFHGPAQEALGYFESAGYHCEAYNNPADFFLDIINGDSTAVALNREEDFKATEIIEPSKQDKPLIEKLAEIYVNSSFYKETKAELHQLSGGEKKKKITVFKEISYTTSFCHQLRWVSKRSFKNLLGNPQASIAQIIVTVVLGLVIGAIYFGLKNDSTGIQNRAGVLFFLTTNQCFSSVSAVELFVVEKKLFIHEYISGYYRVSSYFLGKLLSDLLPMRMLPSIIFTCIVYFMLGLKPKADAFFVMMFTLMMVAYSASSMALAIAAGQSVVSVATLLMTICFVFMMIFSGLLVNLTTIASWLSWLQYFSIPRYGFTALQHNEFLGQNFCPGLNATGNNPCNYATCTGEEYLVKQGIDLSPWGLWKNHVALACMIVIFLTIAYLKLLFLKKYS
Procedure: ABC transporter ATPase activity was measured in Sf9 membrane vesicles containing the respective human ABC transporters [46, 47, 48, 49, 50]. For ABCG2/BCRP, the cholesterol level in the vesicles was increased to the level of mammalian cell membranes for full activity [49]. For ABCB1/Pgp 20 μg/150 μL and for ABCG2/BCRP 10 μg/150 μL, vesicles were incubated with 3 mM Mg-ATP for 25 min at 37 °C. The test drugs were dissolved in DMSO and 1 µL was added to the samples. The ABC transporter-related ATPase activity was determined and reference activators (50 µM verapamil for ABCB1 and 5 µM quercetin for ABCG2) served as controls.
Drug-stimulated ATPase activity of the ABCG2 transporter was also measured in the present study.

ABCC1/MRP1 = ABCC1/MRP1 (Homo sapiens, UniProt P33527); test: in vitro
wild-type ABCG2 = target: T2, wild-type ABCG2 (Homo sapiens, UniProt Q9UNQ0); test: Hoechst 33342 dye extrusion in HeLa cells expressing wild-type ABCG2; format: cell-based; conditions: wild-type ABCG2, 0.2 µM Hoechst 33342, full inhibition by 1 µM Ko143
T2 construct: expressed in transfected cells; host or cells: HeLa (Sleeping Beauty transposon system)
T2 sequence (Q9UNQ0 1-655): T1 sequence (Q9UNQ0 1-655)

ABCB1/Pgp = target: T3, ABCB1/Pgp (Homo sapiens, UniProt P08183); test: ABCB1-ATPase activity in Sf9 membrane vesicles; format: biochemical
T3 construct: made in house; host or cells: Sf9 insect cells
Procedure: ABC transporter ATPase activity was measured in Sf9 membrane vesicles containing the respective human ABC transporters. For ABCG2/BCRP, the cholesterol level in the vesicles was increased to the level of mammalian cell membranes for full activity. For ABCB1/Pgp 20 μg/150 μL and for ABCG2/BCRP 10 μg/150 μL, vesicles were incubated with 3 mM Mg-ATP for 25 min at 37 °C. The test drugs were dissolved in DMSO and 1 µL was added to the samples. The ABC transporter-related ATPase activity was determined and reference activators (50 µM verapamil for ABCB1 and 5 µM quercetin for ABCG2) served as controls.
Drug-stimulated ATPase activity of the ABCB1 transporter is a well-documented functional assay employed to estimate the substrate or inhibitory features of various drugs. […] In this assay, most transported substrates show a biphasic curve: Low concentrations stimulate, while higher concentrations inhibit, the ATPase activity. In these experiments, we measured the vanadate-sensitive (ABC transporter-related) ABCB1-ATPase activity in membrane vesicles isolated from ABCB1 overexpressing Sf9 cells.

OATP1A2 = target: T4, OATP1A2 (Homo sapiens, UniProt P46721); test: cell-based
T4 sequence (P46721 1-670): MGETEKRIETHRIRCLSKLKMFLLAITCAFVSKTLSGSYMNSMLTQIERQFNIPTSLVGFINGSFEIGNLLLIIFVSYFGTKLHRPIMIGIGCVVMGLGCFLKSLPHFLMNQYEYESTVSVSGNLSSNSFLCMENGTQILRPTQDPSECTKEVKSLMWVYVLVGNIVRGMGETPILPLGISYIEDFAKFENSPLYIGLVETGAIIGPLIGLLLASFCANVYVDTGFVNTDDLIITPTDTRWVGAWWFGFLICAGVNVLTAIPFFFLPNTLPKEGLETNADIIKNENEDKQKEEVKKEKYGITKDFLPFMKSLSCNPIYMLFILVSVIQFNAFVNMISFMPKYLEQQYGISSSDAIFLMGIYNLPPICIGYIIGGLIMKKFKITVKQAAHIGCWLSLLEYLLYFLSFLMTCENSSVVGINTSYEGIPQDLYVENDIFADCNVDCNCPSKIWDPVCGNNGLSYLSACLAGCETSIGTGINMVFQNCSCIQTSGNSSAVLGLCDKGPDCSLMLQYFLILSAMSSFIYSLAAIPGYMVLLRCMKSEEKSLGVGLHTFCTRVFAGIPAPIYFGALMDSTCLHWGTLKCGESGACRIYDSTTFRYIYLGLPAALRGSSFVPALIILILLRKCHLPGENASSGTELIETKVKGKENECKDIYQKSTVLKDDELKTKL

OATP2B1 = target: T5, OATP2B1 (Homo sapiens, UniProt O94956); test: cell-based
T5 sequence (O94956 1-709): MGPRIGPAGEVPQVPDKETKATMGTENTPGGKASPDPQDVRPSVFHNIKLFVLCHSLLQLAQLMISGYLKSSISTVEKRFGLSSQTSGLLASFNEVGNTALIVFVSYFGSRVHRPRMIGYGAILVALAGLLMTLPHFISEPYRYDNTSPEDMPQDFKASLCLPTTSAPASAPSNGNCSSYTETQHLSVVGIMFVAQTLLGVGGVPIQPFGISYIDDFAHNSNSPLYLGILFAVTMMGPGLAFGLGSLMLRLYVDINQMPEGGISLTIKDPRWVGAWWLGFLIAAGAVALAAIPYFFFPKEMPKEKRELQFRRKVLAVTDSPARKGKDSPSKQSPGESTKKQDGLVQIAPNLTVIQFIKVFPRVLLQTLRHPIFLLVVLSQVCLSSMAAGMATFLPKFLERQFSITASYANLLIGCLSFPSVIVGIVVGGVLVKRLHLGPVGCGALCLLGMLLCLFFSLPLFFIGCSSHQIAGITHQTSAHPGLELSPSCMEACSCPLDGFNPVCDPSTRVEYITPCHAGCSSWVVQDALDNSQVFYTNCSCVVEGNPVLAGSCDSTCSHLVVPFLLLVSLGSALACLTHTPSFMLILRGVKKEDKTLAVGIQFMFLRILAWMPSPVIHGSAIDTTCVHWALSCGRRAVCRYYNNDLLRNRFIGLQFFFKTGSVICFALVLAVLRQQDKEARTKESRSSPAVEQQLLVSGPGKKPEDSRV

Q141K-ABCG2 variant = target: T6, Q141K-ABCG2 variant (Homo sapiens, UniProt Q9UNQ0, Q141K); test: Hoechst 33342 dye extrusion in HeLa cells expressing Q141K-ABCG2; format: cell-based; conditions: Q141K-ABCG2 variant vs WT
T6 construct: expressed in transfected cells; host or cells: HeLa (Sleeping Beauty transposon system)
T6 sequence (Q9UNQ0 1-655 Q141K): T1 sequence (Q9UNQ0 1-655) with Q141K

T3 sequence (P08183 whole entry): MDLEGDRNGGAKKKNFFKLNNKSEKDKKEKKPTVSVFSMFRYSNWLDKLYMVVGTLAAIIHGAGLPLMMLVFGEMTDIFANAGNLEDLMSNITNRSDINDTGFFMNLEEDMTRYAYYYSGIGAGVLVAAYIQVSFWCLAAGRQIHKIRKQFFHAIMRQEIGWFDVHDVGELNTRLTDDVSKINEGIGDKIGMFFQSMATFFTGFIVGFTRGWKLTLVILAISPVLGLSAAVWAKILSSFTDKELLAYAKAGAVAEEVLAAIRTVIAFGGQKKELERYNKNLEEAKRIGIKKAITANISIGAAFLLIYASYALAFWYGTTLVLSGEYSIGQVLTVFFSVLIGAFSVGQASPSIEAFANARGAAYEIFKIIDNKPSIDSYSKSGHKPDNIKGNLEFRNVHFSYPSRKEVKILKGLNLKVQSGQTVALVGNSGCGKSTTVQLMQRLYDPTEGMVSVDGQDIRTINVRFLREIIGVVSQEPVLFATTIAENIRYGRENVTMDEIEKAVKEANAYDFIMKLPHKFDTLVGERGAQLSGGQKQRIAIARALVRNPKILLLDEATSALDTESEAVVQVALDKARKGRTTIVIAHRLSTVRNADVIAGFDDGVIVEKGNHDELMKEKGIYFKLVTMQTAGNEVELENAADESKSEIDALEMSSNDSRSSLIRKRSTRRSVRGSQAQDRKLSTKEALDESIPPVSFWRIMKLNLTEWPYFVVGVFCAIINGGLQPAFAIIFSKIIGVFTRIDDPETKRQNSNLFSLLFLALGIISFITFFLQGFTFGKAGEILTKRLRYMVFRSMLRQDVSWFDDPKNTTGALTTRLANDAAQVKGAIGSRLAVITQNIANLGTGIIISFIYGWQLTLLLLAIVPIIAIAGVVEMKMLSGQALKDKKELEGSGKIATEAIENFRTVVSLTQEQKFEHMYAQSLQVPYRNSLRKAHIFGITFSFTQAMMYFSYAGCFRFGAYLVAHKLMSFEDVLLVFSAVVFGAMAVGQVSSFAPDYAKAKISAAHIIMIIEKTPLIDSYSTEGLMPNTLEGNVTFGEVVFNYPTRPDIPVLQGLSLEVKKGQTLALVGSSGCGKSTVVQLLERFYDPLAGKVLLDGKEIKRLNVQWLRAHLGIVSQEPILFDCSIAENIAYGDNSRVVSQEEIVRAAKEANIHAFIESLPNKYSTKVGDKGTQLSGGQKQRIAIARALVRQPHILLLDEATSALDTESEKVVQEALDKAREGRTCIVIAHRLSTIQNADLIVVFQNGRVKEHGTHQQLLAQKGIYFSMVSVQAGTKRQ
ABCC1/MRP1, sequence (P33527 whole entry): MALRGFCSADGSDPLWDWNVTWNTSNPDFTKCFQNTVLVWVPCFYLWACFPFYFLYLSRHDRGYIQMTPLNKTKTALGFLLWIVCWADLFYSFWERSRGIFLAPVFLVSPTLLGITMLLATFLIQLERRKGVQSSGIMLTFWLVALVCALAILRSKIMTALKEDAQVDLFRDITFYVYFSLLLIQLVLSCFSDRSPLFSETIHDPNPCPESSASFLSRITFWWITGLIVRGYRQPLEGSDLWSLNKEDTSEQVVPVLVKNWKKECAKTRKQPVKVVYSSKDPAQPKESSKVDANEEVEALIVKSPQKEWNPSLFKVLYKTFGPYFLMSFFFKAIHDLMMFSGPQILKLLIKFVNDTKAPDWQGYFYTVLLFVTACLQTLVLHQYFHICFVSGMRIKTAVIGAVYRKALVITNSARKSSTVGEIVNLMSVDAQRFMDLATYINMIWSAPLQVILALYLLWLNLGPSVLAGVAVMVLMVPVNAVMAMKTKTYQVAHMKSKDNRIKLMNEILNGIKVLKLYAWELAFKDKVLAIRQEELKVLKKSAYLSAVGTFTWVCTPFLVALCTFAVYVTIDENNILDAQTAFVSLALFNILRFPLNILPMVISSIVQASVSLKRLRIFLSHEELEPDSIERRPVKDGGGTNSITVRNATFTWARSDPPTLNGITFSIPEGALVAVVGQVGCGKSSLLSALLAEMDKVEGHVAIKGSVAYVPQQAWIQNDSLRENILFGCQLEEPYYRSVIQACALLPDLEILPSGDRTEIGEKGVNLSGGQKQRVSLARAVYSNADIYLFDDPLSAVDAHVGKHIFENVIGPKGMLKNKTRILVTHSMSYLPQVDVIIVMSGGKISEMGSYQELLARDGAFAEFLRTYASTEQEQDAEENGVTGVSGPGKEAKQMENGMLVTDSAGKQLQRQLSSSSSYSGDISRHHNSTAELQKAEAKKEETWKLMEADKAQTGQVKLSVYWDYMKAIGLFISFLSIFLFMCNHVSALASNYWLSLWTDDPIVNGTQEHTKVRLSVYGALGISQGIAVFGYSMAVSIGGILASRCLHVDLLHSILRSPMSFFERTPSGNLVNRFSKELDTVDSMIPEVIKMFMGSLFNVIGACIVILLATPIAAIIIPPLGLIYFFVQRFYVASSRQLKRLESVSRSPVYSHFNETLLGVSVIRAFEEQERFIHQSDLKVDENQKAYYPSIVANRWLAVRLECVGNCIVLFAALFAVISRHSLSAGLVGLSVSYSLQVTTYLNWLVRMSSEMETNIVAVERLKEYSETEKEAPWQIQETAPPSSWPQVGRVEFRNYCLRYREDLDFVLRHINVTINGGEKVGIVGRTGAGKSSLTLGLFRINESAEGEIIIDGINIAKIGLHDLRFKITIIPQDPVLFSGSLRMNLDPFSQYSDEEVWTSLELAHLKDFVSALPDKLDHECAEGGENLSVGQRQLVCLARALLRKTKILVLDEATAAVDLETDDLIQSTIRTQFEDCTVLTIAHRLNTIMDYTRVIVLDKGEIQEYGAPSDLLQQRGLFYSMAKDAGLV

In the case of Cc1cccc(C)c1OCC(=O)N[C@@H](Cc1ccccc1)[C@@H](O)C[C@H](Cc1ccccc1)NC(=O)[C@H](C(C)C)N1CCCNC1=O [lopinavir], the “Effect on baseline ABCG2-ATPase activity (in words)” value (ABCG2/BCRP) is reported as “significantly inhibited”, the inhibition at 3 min (ABCC1/MRP1) is reported as 60% and the “Effect on Hst dye extrusion by ABCG2 in HeLa cells (in words)” value (wild-type ABCG2) is reported as “inhibited”. For the same molecule, the “Concentration of maximal ABCB1-ATPase stimulation” value (ABCB1/Pgp; Sf9/ABCB1 membranes) was “around 0.5 µM”, the “Effect on ABCB1-ATPase activity (in words)” value (ABCB1/Pgp; Sf9/ABCB1 membranes, 50 µM verapamil as reference activator) was “significant ABCB1-ATPase stimulation” and the “Effect on ABCB1-ATPase activity at higher concentrations (in words)” value (ABCB1/Pgp; at higher concentrations) was “inhibitory effects”. For the same molecule, the IC50 (OATP1A2) was 1.5 µM, the IC50 (OATP2B1) was 1 µM and the “Inhibition of Hst dye extrusion in Q141K-ABCG2 HeLa cells compared with wild type (in words)” value (Q141K-ABCG2 variant) was “significantly stronger inhibition”.
